Data taken from patent US5389613A, “Method of treating prostate adenocarcinoma, prostate benign hypertrophia and endometriosis” (Roussel Uclaf, priority 1979, dated 1995).
“Also recorded” adds a separate entry of the source.

How the values were obtained:
[1] = tested on: testicular steriodogenosis; experiment: Inhibitory activity on testicular steroidogenesis in a patient with prostate cancer (plasmatic steroids); format: in vivo, human; settings: 500 μg intranasally twice a day
Source text: The results are reported in the graphs of sheet 2 of the Figures.

ovarian steroidogenosis = experiment: Inhibitory activity on ovarian steroidogenesis in women (seric LH, FSH, progesterone, estradiol); format: in vivo; settings: for reduction of seric levels of progesterone compared to the controls: typical subject (sheet 3), 500 μg intranasal at 8 A.M. and 5 P.M.
Method: The study was conducted for 6 consecutive cycles consisting of 2 pretreatment cycles, 2 treatment cycles and 2 post-treatment cycles. […] Daily blood samples were taken between 4 and 6 P.M. to measure seric levels of LH, FSH, progesterone and estradiol which were determined by radioimmuno-logic tests with double antibodies. The antibodies to measure LH and FSH were furnished by the National Pituitory Agency of N.I.H. of Bethesda, Md.
Estradiol and progesterone were measured with highly specific antibodies developed against 7-(0-carboxymethyl)-oxime of estradiol and 12-(0-carboxymethyl)-oxime of progesterone, respectively [3H] 17β-estradiol and ^125 I-progesterone -12-[0-carboxymethyl)-oxime] used as tracers. The serum was extracted with benzene and the steroids were separated with a LH-20 column before the determination. The radioimmunological results were exploited by the program derived from model II of Rodbard and Lewald as in Example 1 and the statistical significance was measured by the multiple level test of Ducan-Kramer of Example 1. The results are shown in the graphs of sheets 3 to 5 of the Figures.

[2] = tested on: testicular steroidogensis; experiment: Inhibitory activity against testicular steroidogenesis in men in good health (seric LH, FSH and steroids by radioimmunoassay); format: in vivo
Method: The said product was administered intranasally at a dose of 500 μg in a few drops of distilled water at 8 A.M. on the third day of the test. For 2 days prior to the treatment and for 6 days after the treatment, samples of blood were taken daily at 8 A.M., 3 P.M. and 10 P.M. On the day of administration of the LH-RH agonist, blood samples were taken at 11 A.M. and 6 P.M.
The seric concentrations of LH and FSH were measured by radioimmuno-logic dosages with double antibodies and the antibodies for measuring LH and FSH were furnished by the National Pituitary Agency of N.I.H. in Bethesda, Md. The seric concentrations of steroids was measured by radioimmuno-logic dosages in which one ml of serum was extracted with ether and the steroids were separated on a LH-20 column before measuring with radioimmuno-logic dosages. The radioimmuno-logic dosage results were determined by a program derived from model II of Rodbard et al [Second Karolinska Symposium on Research Methods in Reproductive Endroerinology, Diczfalusky Editor, Copenhague (1970), p. 79-103]. The statistical significance was determined by the "multiple level test" of Duncan-Kramer [Kramer, Biometrics, Vol 12 (1956), p. 307]. The results are shown in the graphs on sheet 1 of the Figures filed herewith.

[3] = intranasal 500 μg, men, 3rd day following administration

Q: Which results are given for `CCNC(=O)[C@@H]1CCCN1C(=O)[C@H](CCCNC(=N)N)NC(=O)[C@H](CC(C)C)NC(=O)[C@@H](COC(C)(C)C)NC(=O)[C@H](Cc1ccc(O)cc1)NC(=O)[C@H](CO)NC(=O)[C@H](Cc1c[nH]c2ccccc12)NC(=O)[C@H](Cc1c[nH]cn1)NC(=O)[C@@H]1CCC(=O)N1` [D Ser (Tbu)^6 of Gly^10 LH-RH ethylamide, [D Ser (Tbu)^6 des.Gly NH2^10] LH-RH ethylamide]?
A: androgenic steroids (plasmatic) [1]: diminution; level of testosterone ([1]; two weeks of treatment): stabilized at a very low level; level of progesterone, pretreatment cycles as base of 100% (ovarian steroidogenosis; 12 cycles of post-treatment): 99%; level of progesterone, pretreatment cycles as base of 100% (ovarian steroidogenosis; 12 cycles of treatment): 46%; level of progesterone reduced as compared to the controls (ovarian steroidogenosis; 12 cycles of treatment (sheet 5), scale 13 to 127%): 46%; reduction of seric levels of progesterone compared to the controls (ovarian steroidogenosis; first cycle of treatment): 13%; reduction of seric levels of progesterone compared to the controls (ovarian steroidogenosis; second cycle of treatment): 34%; effect on testicular steroidogenesis in man ([2]; intranasal 500 μg, men): inhibition of testicular steroidogenesis; seric concentration of 17-OH-progesterone relative to initial control values [2, 3]: 40%; seric concentration of testosterone relative to initial control values [2, 3]: 50%; LH and FSH plasmatic levels ([2]; intranasal 500 μg, men, day of administration): increase; seric concentration of pregnenolone, 17-OH-pregnenolone, progesterone, 17-OH-progesterone, Δ5-androstene-3β,17β-diol and testosterone ([2]; intranasal 500 μg, men, on the day of treatment): increased; level of testosterone/steroids on the fourth day after administration ([2]; single intranasal dose of 500 μg, fourth day after administration): returned to normal; also recorded: return to normal levels; duration of the drop of seric levels of testicular steroids (testosterone and its precursors) ([2]; single intranasal dose of 500 μg, human): 3 days
